Results: patent US7476673B2, “Disubstituted chalcone oximes as selective agonists of RARγ retinoid receptors” (Allergan, Inc., priority 2003, dated 2009)

Legend:
RARα [1] = molecular target: T1, RARα (Homo sapiens, UniProt P10276); assay: ligand binding assay, RARα; details: results expressed in Ki numbers, read-out: RAR Binding α
T1 sequence (P10276 1-462): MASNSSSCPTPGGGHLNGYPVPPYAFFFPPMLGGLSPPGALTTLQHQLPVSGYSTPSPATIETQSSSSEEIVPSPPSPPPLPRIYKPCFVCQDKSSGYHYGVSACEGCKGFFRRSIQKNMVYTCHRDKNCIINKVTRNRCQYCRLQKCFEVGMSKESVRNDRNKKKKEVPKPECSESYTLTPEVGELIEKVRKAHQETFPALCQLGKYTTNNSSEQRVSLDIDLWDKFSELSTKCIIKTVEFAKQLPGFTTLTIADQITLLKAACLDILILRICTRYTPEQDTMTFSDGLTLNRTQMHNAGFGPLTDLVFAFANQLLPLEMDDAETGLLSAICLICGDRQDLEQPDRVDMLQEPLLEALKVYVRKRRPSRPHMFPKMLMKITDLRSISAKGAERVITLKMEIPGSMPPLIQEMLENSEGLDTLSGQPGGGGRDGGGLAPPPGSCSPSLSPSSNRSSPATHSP
Excerpt: (§1) A holoreceptor transactivation assay and a ligand binding assay which measure the antagonist/agonist like activity of the compounds of the invention, or their ability to bind to the several retinoid receptor subtypes, respectively, are described in published PCT Application No. WO WO93/11755 (particularly on pages 30-33 and 37-41) published on Jun. 24, 1993, the specification of which is also incorporated herein by reference. A detailed experimental procedure for holoreceptor transactivations has been described by Heyman et al. Cell 68, 397-406, (1992); Allegretto et al. J. Biol. Chem. 268, 26625-26633, and Mangelsdorf et al. The Retinoids: Biology, Chemistry and Medicine, pp 319-349, Raven Press Ltd., New York, which are expressly incorporated herein by reference. The results obtained in this assay are expressed in EC50 numbers, as they are also in the chimeric receptor transactivation assay. The results of the ligand binding assay are expressed in Ki numbers. (See Cheng et al. Biochemical Pharmacology Vol. 22 pp 3099-3108, expressly incorporated herein by reference.)
(§2) Table 1 discloses the activity of certain exemplary compounds of the invention in the above-described chimeric RAR receptor transactivation and binding assays.

RARα [2] = molecular target: T2, RARα (Homo sapiens, UniProt P10276); assay: chimeric receptor transactivation assay, RARα; type: cell-based; details: for EC50: chimeric receptor transactivation, read-out: RAR EC50 α; for % Efficiency α: percentage of maximum compared to standard TTNPB
T2 sequence (P10276 183-417 limits assumed): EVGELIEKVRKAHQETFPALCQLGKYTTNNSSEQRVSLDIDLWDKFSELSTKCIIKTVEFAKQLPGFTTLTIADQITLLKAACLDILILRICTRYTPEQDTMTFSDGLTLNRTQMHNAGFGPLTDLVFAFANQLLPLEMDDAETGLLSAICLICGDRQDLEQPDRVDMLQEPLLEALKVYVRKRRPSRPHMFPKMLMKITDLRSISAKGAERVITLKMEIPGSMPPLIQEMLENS
Experimental: (§3) The compounds of the invention were tested in certain assays for activity as agonists of RAR and RXR retinoid receptors. Specifically, one such assay is a chimeric receptor transactivation assay which tests for agonist-like activity in the RARα, RARβ and RARγ receptor subtypes, and which is based on work published by Feigner P. L. and Holm M. (1989) Focus, 112 is described in detail in U.S. Pat. No. 5,455,265. The specification of U.S. Pat. No. 5,455,265 is hereby expressly incorporated by reference.
as §1
(§4) Efficacy in a transactivation assay is expressed as a percentage of the maximum potency attained by the compound compared to a standard which, in this case, is the compound 4-[(1E)-2-(5,6,7,8-tetrahydro-5,5,8,8-tetramethyl-2-naphthalenyl)-1-propenyl]-benzoic acid. (TTNPB) This standard compound is described in PCT Publication WO 2002077169 A2.
as §2

RARγ [3] = molecular target: T3, RARγ (Homo sapiens, UniProt P13631); assay: chimeric receptor transactivation assay, RARγ; type: cell-based; details: for EC50: chimeric receptor transactivation, read-out: RAR EC50 γ; for % Efficiency γ: percentage of maximum compared to standard TTNPB
T3 construct: % Efficiency γ; other: percentage of maximum compared to standard TTNPB
T3 sequence (P13631 185-454 limits assumed): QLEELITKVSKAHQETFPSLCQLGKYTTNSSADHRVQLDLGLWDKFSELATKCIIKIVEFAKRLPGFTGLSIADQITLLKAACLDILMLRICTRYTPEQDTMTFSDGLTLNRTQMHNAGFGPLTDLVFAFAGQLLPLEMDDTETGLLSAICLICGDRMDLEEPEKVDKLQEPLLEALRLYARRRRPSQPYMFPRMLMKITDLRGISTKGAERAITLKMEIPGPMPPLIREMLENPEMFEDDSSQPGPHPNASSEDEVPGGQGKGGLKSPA
Experimental: as §3, §1, §4, §2

RARβ [4] = molecular target: T4, RARβ (Homo sapiens, UniProt P10826); assay: ligand binding assay, RARβ; details: results expressed in Ki numbers, read-out: RAR Binding β
T4 sequence (P10826 1-455): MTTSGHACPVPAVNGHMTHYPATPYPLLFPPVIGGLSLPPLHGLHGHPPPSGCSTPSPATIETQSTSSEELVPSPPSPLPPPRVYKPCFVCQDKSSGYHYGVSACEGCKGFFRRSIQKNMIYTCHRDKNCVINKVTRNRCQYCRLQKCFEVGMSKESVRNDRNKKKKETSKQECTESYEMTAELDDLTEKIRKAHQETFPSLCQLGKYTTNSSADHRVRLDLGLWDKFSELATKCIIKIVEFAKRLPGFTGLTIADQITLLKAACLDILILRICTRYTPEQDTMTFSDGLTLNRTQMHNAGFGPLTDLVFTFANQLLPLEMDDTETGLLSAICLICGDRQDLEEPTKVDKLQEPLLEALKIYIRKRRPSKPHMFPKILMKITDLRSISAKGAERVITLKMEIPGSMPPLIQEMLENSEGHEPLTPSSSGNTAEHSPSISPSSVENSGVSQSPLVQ
Excerpt: as §1, §2

RARβ [5] = molecular target: T5, RARβ (Homo sapiens, UniProt P10826); assay: chimeric receptor transactivation assay, RARβ; type: cell-based; details: for EC50: chimeric receptor transactivation, read-out: RAR EC50 β; for % Efficiency β: percentage of maximum compared to standard TTNPB
T5 sequence (P10826 183-455 limits assumed): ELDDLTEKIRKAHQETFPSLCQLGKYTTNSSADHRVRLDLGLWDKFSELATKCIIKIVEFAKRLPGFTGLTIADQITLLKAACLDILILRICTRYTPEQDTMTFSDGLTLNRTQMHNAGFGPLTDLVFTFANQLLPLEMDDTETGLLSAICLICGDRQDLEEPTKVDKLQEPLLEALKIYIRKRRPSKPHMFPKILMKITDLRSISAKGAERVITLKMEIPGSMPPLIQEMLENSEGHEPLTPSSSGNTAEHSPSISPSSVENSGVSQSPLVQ
Experimental: as §3, §1, §4, §2

RARγ [6] = molecular target: T6, RARγ (Homo sapiens, UniProt P13631); assay: ligand binding assay, RARγ; details: results expressed in Ki numbers, read-out: RAR Binding γ
T6 sequence (P13631 1-454): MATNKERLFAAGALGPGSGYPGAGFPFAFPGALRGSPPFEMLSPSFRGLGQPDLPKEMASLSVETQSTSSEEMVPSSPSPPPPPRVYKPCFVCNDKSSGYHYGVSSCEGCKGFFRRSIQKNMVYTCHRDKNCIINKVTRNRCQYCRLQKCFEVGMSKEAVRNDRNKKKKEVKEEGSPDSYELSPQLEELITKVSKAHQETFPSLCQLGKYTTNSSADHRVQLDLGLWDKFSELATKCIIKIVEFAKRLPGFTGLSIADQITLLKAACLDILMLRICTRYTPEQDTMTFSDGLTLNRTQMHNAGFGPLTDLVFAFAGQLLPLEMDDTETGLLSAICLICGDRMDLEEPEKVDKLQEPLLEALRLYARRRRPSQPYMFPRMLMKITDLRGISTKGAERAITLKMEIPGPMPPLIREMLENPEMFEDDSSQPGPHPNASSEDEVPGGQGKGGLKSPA
Excerpt: as §1, §2

`CC1(C)CCCc2cc(C(C=Cc3ccc(C(=O)O)cc3)=NO)ccc21` [drawing 17] was tested, and the Ki (RARα [1]) was 12000 nM, the EC50 (RARα [2]) was 12000 nM and the “% Efficiency α” value (RARα [2]) was 42%. The EC50 (RARγ [3]) was 204 nM, the “% Efficiency γ” value (RARγ [3]) was 65% and the Ki (RARβ [4]) was 31000 nM. For the same compound, the EC50 (RARβ [5]) was 173 nM, the “% Efficiency β” value (RARβ [5]) was 60% and the Ki (RARγ [6]) was 27000 nM.

Work on `COc1cc2c(cc1C(/C=C/c1ccc(C(=O)O)cc1)=N\O)C(C)(C)CCC2(C)C` yielded a Ki (RARα [1]) of 10000 nM, an EC50 (RARα [2]) greater than 1000 nM and an EC50 (RARγ [3]) of 84 nM. The “% Efficiency γ” value (RARγ [3]) was 107%, the Ki (RARβ [4]) was 10000 nM and the EC50 (RARβ [5]) was 5920 nM. The “% Efficiency β” value (RARβ [5]) was 44% and the Ki (RARγ [6]) was 1500 nM.

For `CC1(C)CC(C)(C)c2cc(C(C=Cc3ccc(C(=O)O)cc3)=NO)ccc21` [drawing 30], the Ki (RARα [1]) was 7000 nM, the EC50 (RARα [2]) was 148 nM and the “% Efficiency α” value (RARα [2]) was 55%. The EC50 (RARγ [3]) was 0.2 nM, the “% Efficiency γ” value (RARγ [3]) was 71% and the Ki (RARβ [4]) was 17000 nM. For the same compound, the EC50 (RARβ [5]) was 83 nM, the “% Efficiency β” value (RARβ [5]) was 104% and the Ki (RARγ [6]) was 6 nM.

With `CC1(C)CCCc2ccc(C(/C=C/c3ccc(C(=O)O)cc3F)=N/O)cc21` the Ki (RARα [1]) was 5200 nM, the EC50 (RARα [2]) was 118 nM and the “% Efficiency α” value (RARα [2]) was 39%. For the same compound, the EC50 (RARγ [3]) was 44 nM, the “% Efficiency γ” value (RARγ [3]) was 97% and the Ki (RARβ [4]) was 1200 nM. The EC50 (RARβ [5]) was 62 nM, the “% Efficiency β” value (RARβ [5]) was 133% and the Ki (RARγ [6]) was 46 nM.

`CC1(C)CCC(C)(C)c2cc(C(C=Cc3ccc(C(=O)O)cc3F)=NO)ccc21` [drawing 11] was tested, and the Ki (RARα [1]) was 8000 nM, the EC50 (RARα [2]) was greater than 1000 nM and the EC50 (RARγ [3]) was 0.85 nM. The “% Efficiency γ” value (RARγ [3]) was 76%, the Ki (RARβ [4]) was 8000 nM and the EC50 (RARβ [5]) was 118 nM. The “% Efficiency β” value (RARβ [5]) was 85% and the Ki (RARγ [6]) was 34 nM.

`Cc1cc2c(cc1C(C=Cc1ccc(C(=O)O)cc1)=NO)C(C)(C)CCC2(C)C` [drawing 37] showed a Ki (RARα [1]) of 8000 nM, an EC50 (RARα [2]) greater than 1000 nM and an EC50 (RARγ [3]) of 35 nM. The “% Efficiency γ” value (RARγ [3]) was 67%, the Ki (RARβ [4]) was 28000 nM and the EC50 (RARβ [5]) was 157 nM. For the same compound, the “% Efficiency β” value (RARβ [5]) was 14% and the Ki (RARγ [6]) was 1850 nM.

`CC1(C)CC(C)(C)c2cc(C(C=Cc3ccc(C(=O)O)cc3)=NO)ccc2O1` [drawing 25] was tested, and the Ki (RARα [1]) was 5000 nM, the EC50 (RARα [2]) was 135 nM and the “% Efficiency α” value (RARα [2]) was 60%. The EC50 (RARγ [3]) was 57 nM, the “% Efficiency γ” value (RARγ [3]) was 95% and the Ki (RARβ [4]) was 5000 nM. For the same compound, the EC50 (RARβ [5]) was 93 nM, the “% Efficiency β” value (RARβ [5]) was 97% and the Ki (RARγ [6]) was 10000 nM.

`CC1(C)CCC(C)(C)c2nc(C(C=Cc3ccc(C(=O)O)cc3)=NO)cnc21` [drawing 35] was tested, and the Ki (RARα [1]) was 25000 nM, the EC50 (RARα [2]) was 128 nM and the “% Efficiency α” value (RARα [2]) was 54%. For the same compound, the EC50 (RARγ [3]) was 143 nM, the “% Efficiency γ” value (RARγ [3]) was 151% and the EC50 (RARβ [5]) was 77 nM. The “% Efficiency β” value (RARβ [5]) was 110% and the Ki (RARγ [6]) was 461 nM.
